Measurements published in publication PMC12374030, “Hydroxyalkyne–Bithiophene Derivatives: Synthesis and Antileishmanial Activity” (Chemical Biology & Drug Design, 2025).
*1 amine or outer side, *2 acyl side, *3 side chain or, on linkers, in order; H or OH if unused. Where a SMILES comes first, the peptide text is derived from it. Bridges are numbered along the chain shown (N, C = ends). Roman numbers before positions name the chains, in order. [ ]: non-standard residue; d: D form. Actinocin(9to1) = Cc1c2oc3c(C)ccc(C(=O)[*:1])c3nc-2c(C(=O)[*:2])c(N)c1=O; NMeV = CN[C@H](C(=O)O)C(C)C; Sar = CNCC(=O)O

Tests used:
[1] = system: L. amazonensis promastigotes; experiment: Cell size (FSC-H, flow cytometry); assay type: cell-based, Leishmania amazonensis; design: reduction in cell size: dose or concentration left out as unconfirmed; details: positive control, 24 h
Description: Promastigotes at 1 × 10^6 parasites mL^−1 treated with BT‐1 for 24 h were washed twice and resuspended in phosphate‐buffered saline (PBS), then analyzed using a FACSCalibur flow cytometer (BD Biosciences, Franklin Lakes, NJ, USA) equipped with CellQuest software. As a positive control, […] actinomycin D was used. A total of 10,000 events were acquired in the region that corresponded to the parasites. Histograms were generated for each sample, where the forward light scatter (FSC‐H) represents the cell volume (Lazarin‐Bidóia et al. [2013]).

[2] = system: L. amazonensis promastigotes; experiment: Mitochondrial membrane potential (Rh123, flow cytometry); assay type: cell-based, Leishmania amazonensis; details: 24 h
Description: Promastigotes at 1 × 10^6 parasites mL^−1 treated with BT‐1 for 24 h were incubated with 5 μg mL^−1 Rh123, a fluorescent probe that accumulates in mitochondria, for 15 min (Menna‐Barreto, Corrêa, et al. [2009]; Menna‐Barreto, Goncalves, et al. [2009]). As a positive control, 100 μM CCCP was used. The data acquisition and analysis were performed using a FACSCalibur flow cytometer (BD Biosciences, Franklin Lakes, NJ, USA) equipped with CellQuest software. A total of 10,000 events were acquired in the region corresponding to the parasites.

[3] = system: L. amazonensis promastigote forms; experiment: Antiproliferative assay (XTT); assay type: cell-based, Leishmania amazonensis; details: for IC50: Leishmania amazonensis, 72 h, 25°C, XTT, read-out: L. amazonensis (promastigotes) IC50; for Selectivity index (SI): ratio between the CC50 (J774A.1 macrophages) and IC50 (promastigotes)
Description: L. amazonensis MHOM/BR/75/Josefa strain was originally isolated from a human case of CL by Dr. […]. Cuba at the University of Brasilia, Brazil (Saraiva et al. [1983]; Cuba et al. [1985]). […] The activity against promastigotes was evaluated by XTT (0.5 mg mL^-1), as previously described (Meshulam et al. [1995]). Absorbance was read in a microplate spectrophotometer (PowerWave XS; BioTek, Winooski, VT, USA) at 450 nm.

[4] = Cytotoxicity assay in macrophages (MTT); assay type: cell-based; details: mouse, J774A.1 macrophages, pH 7.2
Description: L. amazonensis MHOM/BR/75/Josefa strain was originally isolated from a human case of CL by Dr. Cesar A. Cuba at the University of Brasilia, Brazil (Saraiva et al. [1983]; Cuba et al. [1985]). Promastigote forms of this strain were maintained axenically in Warren's medium (brain–heart infusion plus hemin and folic acid; pH 7.2) supplemented with 10% heat‐inactivated FBS and maintained at 25°C. J774A.1 macrophages (obtained from the Cell Bank of Rio de Janeiro, RJ, Brazil) were maintained in RPMI‐1640 medium (pH 7.2), supplemented with sodium bicarbonate, L‐glutamine, 10% FBS, and streptomycin and penicillin at 37°C in a 5% CO2 atmosphere.
Cytotoxicity was evaluated in the J774A.1 macrophages. Macrophages (5 × 10^5 cells mL^−1) were cultured in 96‐well microplates containing RPMI‐1640 medium supplemented with 10% FBS. The plates were incubated at 37°C in a 5% CO2 atmosphere for confluent growth of the cells. After 24 h, the compounds were added to each well at increasing concentrations (31.25–1000 μM) and incubated for 48 h at 37°C in a 5% CO2 atmosphere. The cytotoxicity was evaluated by MTT (2 mg mL^−1), as previously described (Mosmann [1983]). Absorbance was read in a microplate spectrophotometer (PowerWave XS; BioTek, […], VT, USA) at 570 nm.

[5] = system: L. amazonensis promastigotes; experiment: Lipid peroxidation assay (DPPP); assay type: cell-based, Leishmania amazonensis; details: positive control, 50 μM
Description: Promastigotes at 1 × 10^6 parasites mL^−1 treated with BT‐1 for 24 h were incubated with 50 μM DPPP for 15 min at 22°C. As a positive control, 50 μM H2O2 was used. The fluorescence was determined in a Victor X3 spectrofluorimeter (PerkinElmer, Waltham, MA, USA) at λex of 355 nm and λem of 460 nm. DPPP is essentially nonfluorescent until it is oxidized to a phosphine oxide (DPPP‐O) by peroxides (Okimoto et al. [2000]).

[6] = system: L. amazonensis promastigotes; experiment: Reactive oxygen species production (H2DCFDA); assay type: cell-based, Leishmania amazonensis; details: positive control, 50 μM
Description: Promastigotes at 1 × 10^6 parasites mL^−1 treated with BT‐1 for 24 h were incubated with 10 μM H2DCFDA in the dark for 45 min. As a positive control, 50 μM H2O2 was used. The fluorescence was determined by oxidation of H2DCFDA to the fluorescent product, 2′‐7ʹ dichlorofluorescein (DCF), which was measured in a Victor X3 spectrofluorimeter (PerkinElmer, Waltham, MA, USA) at λex of 488 nm and λem of 530 nm (Shukla et al. [2012]).

[7] = system: L. amazonensis promastigotes; experiment: Cell membrane integrity (PI, flow cytometry); assay type: cell-based, Leishmania amazonensis; details: positive control, 40 μM, 5 min
Description: Promastigotes at 1 × 10^6 parasites mL^−1 treated with BT‐1 for 24 h were incubated with 0.2 μg mL^−1 PI for 10 min. As a positive control, 40 μM digitonin was used. The data acquisition and analysis were performed using a FACSCalibur flow cytometer (BD Biosciences, Franklin Lakes, NJ, USA) equipped with CellQuest software. A total of 10,000 events were acquired in the region that corresponded to the parasites. Alterations in PI fluorescence were quantified as the percentage increase in fluorescence compared with the untreated parasites (Lazarin‐Bidóia et al. [2013]).

[8] = system: L. amazonensis promastigotes; experiment: Cell cycle (PI-RNAse A, flow cytometry); assay type: cell-based, Leishmania amazonensis; details: positive control, 40 μM, 24 h
Description: Promastigotes at 1 × 10^6 parasites mL^−1 treated with BT‐1 for 24 h were fixed in 70% cold methanol in PBS at 4°C for 2 h. Afterward, the parasites were washed in PBS, 10 μg mL^−1 PI‐RNAse A was added, and the samples were incubated at 37°C for 45 min. The data acquisition and analysis were performed using a FACSCalibur flow cytometer (BD Biosciences, Franklin Lakes, NJ, USA) equipped with CellQuest software. A total of 10,000 events were acquired in the region that corresponded to the parasites. As a positive control, 40 μM miltefosine was used. The percentages of cells in each stage of the cell cycle were determined based on the intensity of the PI fluorescence, which is directly proportional to the DNA content.

SMILES | IC50 [3] | Selectivity index (SI) [3] | CC50 at 48 h [4] | also measured
Cc1c2oc3c(C)ccc(C(=O)N[C@@H]4C(=O)N[C@H](C(C)C)C(=O)N5CCC[C@H]5C(=O)N(C)CC(=O)N(C)[C@@H](C(C)C)C(=O)O[C@@H]4C)c3nc-2c(C(=O)N[C@@H]2C(=O)N[C@H](C(C)C)C(=O)N3CCC[C@H]3C(=O)N(C)CC(=O)N(C)[C@@H](C(C)C)C(=O)O[C@@H]2C)c(N)c1=O [Actinomycin D, reference compound] (I: T[dV]P[Sar][NMeV] / II: T[dV]P[Sar][NMeV]; ester I:1-I:C, II:1-II:C; linker I:N-II:N via Actinocin(9to1)) |  |  |  | reduction in cell size [1]: 2.05 fold
N#CC(C#N)=NNc1cccc(Cl)c1 [CCCP, carbonyl cyanide m‐chlorophenylhydrazone, reference compound] |  |  |  | Mitochondrial potential: Average (Median) ([2]; positive control 100 μM, Rh123 fluorescence): 6.38; reduction in the mitochondrial membrane potential ([2]; positive control, 100 μM): 342.8 fold
O=Cc1ccc(-c2ccc(C#CCCO)s2)s1 [Compound 2, 5′‐(4‐hydroxy‐but‐1‐ynyl)‐[2,2′]bithiophenyl‐5‐carbaldehyde] | 25.1 ± 0.8 µM | 7.90 | 198 ± 3.9 µM | 
CC(C)N=Cc1ccc(-c2ccc(C#CCCO)s2)s1 [Compound 2a] | 44.1 ± 2 µM | 6.56 | 289 ± 6.5 µM | 
CCCCN=Cc1ccc(-c2ccc(C#CCCO)s2)s1 [Compound 2b] | 48.5 ± 4.2 µM | 5.65 | 274 ± 5.2 µM | 
OCCC#Cc1ccc(-c2ccc(C=NC3CCCCC3)s2)s1 [Compound 2c] | 51.2 ± 1.5 µM | 5.28 | 271 ± 2.8 µM | 
NC(=S)NN=Cc1ccc(-c2ccc(C#CCCO)s2)s1 [Compound 2d] | 41.4 ± 0.6 µM | 5.42 | 224 ± 4.9 µM | 
CC(C)(O)C#Cc1ccc(-c2ccc(C=O)s2)s1 [Compound 3, 5′‐(3‐hydroxy‐3‐methyl‐but‐1‐ynyl)‐[2,2′]bithiophenyl‐5‐carbaldehyde] | 94 ± 4.2 µM | 3.00 | 283 ± 6.7 µM | 
CC(C)N=Cc1ccc(-c2ccc(C#CC(C)(C)O)s2)s1 [Compound 3a] | 49.5 ± 3.1 µM | 5.68 | 281 ± 6.2 µM | 
CCCCN=Cc1ccc(-c2ccc(C#CC(C)(C)O)s2)s1 [Compound 3b] | 55.3 ± 5.1 µM | 5.34 | 296 ± 4.1 µM | 
CC(C)(O)C#Cc1ccc(-c2ccc(C=NC3CCCCC3)s2)s1 [Compound 3c] | 40.1 ± 1.1 µM | 5.95 | 238.5 ± 1.9 µM | 
CC(C)(O)C#Cc1ccc(-c2ccc(/C=N/NC(N)=S)s2)s1 [Compound 3d] | 39.5 ± 5.1 µM | 5.56 | 220 ± 3.8 µM | 
OO [Compound H2O2, reference compound] |  |  |  | increase in lipoperoxidation [5]: 3.6 fold; increase in the production of ROS [6]: 3.5 fold
C[C@@H]1CC[C@@]2(OC1)O[C@H]1[C@@H](O)[C@H]3[C@@H]4CC[C@H]5C[C@@H](O[C@@H]6O[C@H](CO)[C@H](O[C@@H]7O[C@H](CO)[C@@H](O)[C@H](O[C@@H]8OC[C@@H](O)[C@H](O)[C@H]8O)[C@H]7O[C@@H]7O[C@H](CO)[C@H](O)[C@H](O[C@@H]8O[C@H](CO)[C@@H](O)[C@H](O)[C@H]8O)[C@H]7O)[C@H](O)[C@H]6O)[C@H](O)C[C@]5(C)[C@H]4CC[C@]3(C)[C@H]1[C@@H]2C [Digitonin, digitonin, reference compound] |  |  |  | increase of PI-stained cells [7]: 3.10 fold
CCCCCCCCCCCCCCCCOP(=O)([O-])OCC[N+](C)(C)C [Miltefosine, miltefosine, reference compound] |  |  |  | increase of cells in sub-G0 phase compared with the untreated control [8]: 12.33 fold
